Laboratory results published in patent publication US20100092453A1, “Method of producing porous microparticles” (priority 2006, published 2010).

How the values were obtained:
[1] = In vitro dry powder inhaler deposition, Andersen Cascade Impactor
Procedure: The pulmonary deposition of the dry powders was investigated using an Andersen Cascade Impactor (ACI) (1 ACFM Eight Stage Non-Viable Cascade Impactor, Graseby Andersen, Atlanta, Ga.). […] Size 3 hard gelatin capsules (Farillon Ltd., U.K.) were filled to approximately 50% with the dry powder (approximately 25 mg of powder). […] The amount of powder deposited on each stage of the impactor was determined by weight, UV analysis or HPLC analysis.

[2] = Suspension sedimentation analysis (water/Tween 80); type: physicochemical; settings: water/Tween 80 (96:4 v/v)
Procedure: Sedimentation analysis was carried out on suspensions of bendroflumethiazide (BFMT) and sulfadimidine. 25 ml suspensions were prepared by mixing water and Tween 80 (96:4 v/v) with 150 mg of the drug powder. The suspensions were transferred to 25 ml graduated cylinders, mixed thoroughly and their sedimentation observed over time.

[3] = Density measurements (bulk, tap, Carr's compressibility index); type: physicochemical
Procedure: Dublin 12) with a funnel. The weight of the powder required to fill the 1 ml graduated syringe was recorded to calculate bρ. […] The resultant volume was recorded [NT]ρ. Each measurement was performed in triplicate. The Carr's compressibility index of some of the systems was calculated from the following equation: compressibility index(%)=[(tap density-bulk density)/tap density]×100 Lower values of the index are desirable as they indicate better flow.

[4] = Suspension stability of MDI systems in HFA-134a; type: physicochemical; settings: BFMT in HFA-134a
Procedure: In order to prepare metered dose inhalers, 20 mg of powder was weighed into glass vials. Afterwards a 25 μl metering valve (Bespak, UK) was crimped onto the glass vial and the liquid propellant HFA-134a was added through the nozzle. The final weight of each MDI (without the container and metering valve) was 10 g. The last two steps were performed using a Pamasol P 2016 aerosol filling station (Pamasol Willi Mader AG, Pfäffikon, Switzerland). Prepared MDIs were homogenised in a Bransonic 220 ultrasonic bath (UK) for 1 min.

Row | mass median aerodynamic diameter (MMAD) [1] [μm] | time to completely settle in suspension [2] [min] | compressibility index ([3]; Carr's index from tap and bulk density) [%] | sedimentation of powder particles in suspension (observation) ([2]; observed up to four hours) | sedimentation in MDI after 4 hours ([4]; 4 hours) | sedimentation in MDI after seven days ([4]; 7 days) | bulk density [3] [g/mL] | tap density [3] [g/mL] | Structure (SMILES)
1 | 14.4±4.9 | ≤ 30 | 50.3 | – | – | – | – | – | Cc1cc(C)nc(NS(=O)(=O)c2ccc(N)cc2)n1 [Micronised sulfadimidine, sulfadimidine]
2 | – | – | – | completely settle in a matter of seconds | noticeable sedimentation | completely settled | 0.29 | 0.58 | NS(=O)(=O)c1cc2c(cc1C(F)(F)F)NC(Cc1ccccc1)NS2(=O)=O (stereo not shown) [raw BFMT, bendroflumethiazide]
3 | – | – | – | – | – | – | 0.341 ± 0.024 | 0.661 ± 0.023 | O=C(O)c1cc(=O)c2c(OCC(O)COc3cccc4oc(C(=O)O)cc(=O)c34)cccc2o1 [sodium cromoglycate]
